Test results reported in patent publication US7153524B2, “Method for improving adsorption of a drug from ethylene oxide derivative” (Astellas Pharma Inc., priority 2002, dated 2006).
≈ marks a conversion by molar mass, not a printed value. Counter-ions that a name gives are not always drawn.

Key:
[1] = Adsorption of various compounds on the oil-gel phase (Experiment 5); assay type: physicochemical; details: 0.8% mucin, 600 μg loading, 2 hours
Experimental: When Macrogol 6000 was added to the aqueous phase, it was brought to 3.5% (n=3,6). […] The compounds that were used were […], nicardipine hydrochloride, compound B, and compound C. […] Furthermore, the oil phase surface was washed with methanol and the drug adsorbed on the oil phase in the recovered solution was assayed with an ultraviolet-visible spectrophotometer for each compound.

H. pylori [2] = assay: Minimum concentration at which an increase in bacteria is inhibited; assay type: cell-based
[3] = Solubility of compound A in water and components of mucus layer; assay type: physicochemical
Experimental: Compound A is a drug that acts directly from the gastric lumen side on the H. pylori that lives in the mucous layers and therefore, the case wherein after dissolution (I), the bulk powder that has been administered transfers (IV) and the case where the bulk powder is dissolved (II) after transferring to the mucous layers (III) will be considered. The effects of Macrogol 6000 on the course of dissolution of compound A were studied. A specific amount of compound A was added to ion-exchanged water, a 0.8% mucin (Sigma) solution, a 6.2% BSA (Sigma) solution, and linoleic acid (Sigma), and various drugs suspensions were obtained by exposure for 20 minutes to ultrasonic waves (Sono Cleaner, Kaijo Corporation). The rest of the procedure was performed as in Example 1 and the following samples were obtained.
Solubility of compound A in water was calculated by filtering the liquid after dispersion using a hydrophilic filter (0.45 μm, Advantec) and submitting the product to assay by high-performance liquid chromatography (HPLC hereafter) (n=2, sample (1); n=3, sample (2)).
Solubility of the drug in mucin was calculated by filtering the liquid after dispersion using a hydrophilic filter (0.8 μm, Advantec) and submitting the product to assay by HPLC (n=3, samples (3) and (4)).
The liquid after dispersion was filtered with a hydrophilic filter (0.45 μm, Advantec), absorbance at 370 nm and 550 nm (corrected for turbidity) was determined under room temperature using an ultraviolet-visible spectrophotometer, and solubility was calculated (n=3, samples (5) and (6)).
The liquid after dispersion was filtered with a hydrophilic filter (0.45 μm, Advantec), absorbance at 366 nm and 550 nm (corrected for turbidity) was determined under room temperature using an ultraviolet-visible spectrophotometer, and solubility was calculated (n=3, samples (7) and (8)).

H. pylori [4] = assay: In vivo anti-H. pylori activity, Mongolian gerbil infection model (Experiment 4); design: species or system Mongolian gerbils; details: for Clearance rate: oral twice a day for three days
Experimental: In vivo anti-H. pylori activity was evaluated with animal experiments using Mongolian gerbil infection models. […] The drug was administered twice a day for three days at an administration volume of 20 mL/kg using an oral stomach tube. The stomach was autopsied and excised and the number of H. pylori in the stomach were measured the day after the final administration. In vivo anti-H. pylori activity was evaluated from clearance, that is, the ratio of the number of cases in which H. pylori was identified and the number of cases in which the number of bacteria after treatment was below the detection limit.

H. pylori [5] = details: compound used alone; cited from earlier work
[6] = Rate of adsorption of compound A on the oil-gel phase in presence of POE excipients (Experiment 3); assay type: physicochemical
Experimental: (§1) In order to study adsorption of a drug from an aqueous phase onto an oil phase (model of mucous layers), an in vitro test system wherein mixing of the oil components in the aqueous phase is prevented was constructed by immobilizing the oil phase with a gelling agent and separating it from the aqueous phase of a drug suspended in a mucin solution. Immobilization of the oil phase was performed by adding 120 mg of an oil gelling agent, which is a natural oil and fat fatty acid extracted from castor oil (Johnson Co., Ltd.), to 2 mL of medium chain fatty acid triglyceride (Nihon Oils and Fats Co., Ltd.; brand name: Panaset) and preparing an oil gel in a test tube (inner diameter of 1 cm, Eiken tube No. 5). A solution of 600 μg of compound A suspended in 2 mL of an aqueous 0.8% mucin solution was prepared and brought into contact with the oil phase (n=6). When Macrogol 6000 was added to the aqueous phase, the concentration was brought to 3.5% (n=3 to 6). After setting the solution aside for two hours, the aqueous phase was recovered and compound A was assayed by HPLC. Furthermore, the surface of the oil phase was washed with methanol and compound A in the recovered solution was assayed by HPLC.
The rate of adsorption of a drug of compound A on the oil phase was measured by the same method as in Example 2.

[7] = Adsorption of compound A from aqueous phase onto immobilized oil-gel phase (Experiment 2); assay type: physicochemical; details: for adsorption amount of chemical compound A: drug charge 600 μg, 2 h
Experimental: as §1

Cc1cccc(NC(=O)N[C@@H]2N=C(c3ccccc3)c3ccccc3N(CC(=O)c3ccccc3C)C2=O)c1 [compound B, (R)-1-[2,3-dihydro-1-(2′-methylphenacyl)-2-oxo-5-phenyl-1H-1,4-benzodiazepin-3-yl]-3-(3-methylphenyl)urea]
adsorption amount of chemical compound ([1]; with 3.5% PEG6000): 411 ± 3 µg | adsorption amount of chemical compound ([1]; without PEG6000): 269 ± 13 µg

Cc1nc2c([nH]1)-c1ccccc1N(C(=O)c1ccc(NC(=O)c3ccccc3-c3ccccc3)cc1)CC2.Cl [compound C, 4′-[(2-methyl-1,4,5,6-tetrahydroimidazo[4,5-d][1]benzazepin-6-yl)carbonyl]-2-phenylbenzanilide hydrochloride]
adsorption amount of chemical compound ([1]; with 3.5% PEG6000): 370 ± 12 µg | adsorption amount of chemical compound ([1]; without PEG6000): 335 ± 10 µg

CCCCCC/C=C/Cc1c(C)c(=O)c2ccccc2n1O [compound A, 1-hydroxy-2-(2-trans-nonenyl)-3-methyl-4(1H)-quinolone]
minimum concentration at which an increase in bacteria is inhibited (H. pylori [2]): 0.025 µg/mL | solubility ([3]; 0.8% mucin aq. solution (sample 3)): 5.9 µg/mL (≈ 19.7 µM) | solubility ([3]; 0.8% mucin aq. solution +3.5% PEG6000 (sample 4)): 6.9 µg/mL (≈ 23 µM) | solubility ([3]; 6.2% BSA aq. solution (sample 5)): 18.0 µg/mL (≈ 60.1 µM) | solubility ([3]; 6.2% BSA aq. solution +3.5% PEG6000 (sample 6)): 26.9 µg/mL (≈ 89.8 µM) | increase in solubility when Macrogol 6000 was added ([3]; BSA solution, sample 6 vs 5): 1.5 fold | increase in solubility when Macrogol 6000 was added ([3]; aqueous mucin solution, sample 4 vs 3): 1.2 fold | solubility ([3]; distilled water +3.5% PEG6000 (sample 2)): 0.1 µg/mL (≈ 0.334 µM) | solubility ([3]; distilled water, no PEG6000 (sample 1)): 0.1 µg/mL (≈ 0.334 µM) | solubility ([3]; linoleic acid (sample 7)): 135.0 µg/mL (≈ 451 µM) | solubility ([3]; linoleic acid +10% PEG6000 (sample 8)): 110.0 µg/mL (≈ 367 µM) | augmentation of the in vivo anti-H. pylori activity (H. pylori [4]; 0.2% Macrogol 6000 added vs 0.5% MC suspension alone): 10 fold | clearance (H. pylori [4]; 0.2% Macrogol 6000 in 0.5% MC suspension, dose of 0.1 mg/kg or higher): ≥ 80% | in vivo anti-H. pylori activity with Macrogol 6000 compared to without (H. pylori [4]; 0.2% of Macrogol 6000 added): augmentation of in vivo anti-H. pylori activity was seen | Clearance ratio (H. pylori [4]; PEG6000 0%, dose 0.1 mg/kg): (0/5) | Clearance rate (H. pylori [4]; PEG6000 0%, dose 0.1 mg/kg): 0% | Clearance ratio (H. pylori [4]; PEG6000 0%, dose 0.3 mg/kg): (1/5) | Clearance rate (H. pylori [4]; PEG6000 0%, dose 0.3 mg/kg): 20% | Clearance ratio (H. pylori [4]; PEG6000 0%, dose 1 mg/kg): (4/5) | Clearance rate (H. pylori [4]; PEG6000 0%, dose 1 mg/kg): 80% | Clearance rate (H. pylori [4]; PEG6000 0%, dose 1 mg/kg, listed as chemical compound A): 80% | Clearance ratio (H. pylori [4]; PEG6000 0%, dose 3 mg/kg): (4/5) | Clearance rate (H. pylori [4]; PEG6000 0%, dose 3 mg/kg): 80% | Clearance ratio (H. pylori [4]; PEG6000 0.2%, dose 0.1 mg/kg): (4/5) | Clearance rate (H. pylori [4]; PEG6000 0.2%, dose 0.1 mg/kg): 80% | Clearance ratio (H. pylori [4]; PEG6000 0.2%, dose 0.3 mg/kg): (4/4) | Clearance rate (H. pylori [4]; PEG6000 0.2%, dose 0.3 mg/kg): 100% | Clearance ratio (H. pylori [4]; PEG6000 0.2%, dose 1 mg/kg): (4/5) | Clearance rate (H. pylori [4]; PEG6000 0.2%, dose 1 mg/kg): 80% | Clearance ratio (H. pylori [4]; PEG6000 0.2%, dose 3 mg/kg): (4/4) | Clearance rate (H. pylori [4]; PEG6000 0.2%, dose 3 mg/kg): 100% | number of live bacteria in vivo (H. pylori [5]): reduction in the number of live bacteria in vivo | Adsorption on the oil-gel phase, amount(%) ([6]; excipient HCO 60 (n 60, m 10)): 33 ± 14% | Adsorption on the oil-gel phase, amount(%) ([6]; excipient HCO 80 (n 80, m 13.3)): 17 ± 10% | Adsorption on the oil-gel phase, amount(%) ([6]; excipient HCO 100 (n 100, m 16.7)): 37 ± 11% | Adsorption on the oil-gel phase, amount(%) ([6]; excipient PEG400 (n 8, m 8)): 42 ± 9% | Adsorption on the oil-gel phase, amount(%) ([6]; excipient PEG 4000 (n 72, m 72)): 42 ± 4 % | Adsorption on the oil-gel phase, amount(%) ([6]; excipient PEG 6000 (n 188, m 188)): 72 ± 3 % | Adsorption on the oil-gel phase, amount(%) ([6]; excipient PEG 20000 (n 455, m 455)): 79 ± 0 % | Adsorption on the oil-gel phase, amount(%) ([6]; excipient Pluronic F68 (n 160, m 80)): 67 ± 3 % | Adsorption on the oil-gel phase, amount(%) ([6]; excipient Pluronic L31 (n 3, m 1.5)): 28 ± 5% | Adsorption on the oil-gel phase, amount(%) ([6]; excipient Pluronic L44 (n 20, m 10)): 25 ± 2% | Adsorption on the oil-gel phase, amount(%) ([6]; excipient Pluronic L64 (n 27, m 13.5)): 32 ± 5% | Adsorption on the oil-gel phase, amount(%) ([6]; excipient Pluronic P85 (n 54, m 27)): 40 ± 4 % | Adsorption on the oil-gel phase, amount(%) ([6]; excipient Pluronic P103 (n 29, m 14.5)): 22 ± 7% | Adsorption on the oil-gel phase, amount(%) ([6]; without excipient): 19 ± 7% | drug adsorbed at the surface of the oil phase, % of the drug that was added ([7]; compound A-mucin suspension with Macrogol 6000, average): 93% | drug adsorbed at the surface of the oil phase, % of the charged amount ([7]; compound A-mucin suspension, no Macrogol 6000): 47% | adsorption amount of chemical compound A ([7]; mucin (+), with 3.5% PEG6000): 506 µg | adsorption amount of chemical compound A ([7]; mucin (+), with 3.5% PEG6000, listed as chemical compound A): 506 ± 53 µg | adsorption amount of chemical compound A ([7]; mucin (+), without PEG6000): 259 µg | adsorption amount of chemical compound A ([7]; mucin (+), without PEG6000, listed as chemical compound A): 259 ± 63 µg | adsorption amount of chemical compound A ([7]; mucin (−), with 3.5% PEG6000): 173 ± 25 µg | adsorption amount of chemical compound A ([7]; mucin (−), without PEG6000): 249 ± 24 µg | increase in amount adsorbed on the oil phase when Macrogol 6000 was added ([7]; mucin suspension, with vs without Macrogol 6000): 2.0 fold

COC(=O)C1=C(C)NC(C)=C(C(=O)OCCN(C)Cc2ccccc2)C1c1cccc([N+](=O)[O-])c1 (stereo not shown) [nicardipine, nicardipine hydrochloride, reference compound]
adsorption amount of chemical compound ([1]; with 3.5% PEG6000): 96 ± 5 µg | adsorption amount of chemical compound ([1]; without PEG6000): 47 ± 6 µg
